# According to patent US20260035364A1, “BICYCLIC TETRAHYDROTHIAZEPINE DERIVATIVES” (Hoffmann-La Roche Inc., priority 2022, published 2026):
# Where two headings read alike, the source gives them in different places.
# Assays:
# [1] = target: DGKalpha (Homo sapiens, UniProt P23743); assay: In vitro DGK inhibition assay (ADP-Glo, liposomes), DGKalpha; type: biochemical; set-up: hDGKalpha(1-735)-N-His; His (N); made in house; host or cells: Sf21 insect cells (baculovirus); conditions: 4 nM DGK α, 25 μM ATP, 125 uM DLG in liposomes, 1 hour reaction
# Method in brief: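 Full-length human DGKα (4 nM) or DGKζ (2 nM) from Sf21 cells, with DLG substrate at 125 uM in PS/PC liposomes and ATP at 25 μM (α) or 50 μM (ζ); 1 h reaction. ADP formed read by ADP-Glo luminescence; compounds 11-point, 1:3 dilutions from 10 mM, 2% DMSO final.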
# [2] = target: DGKzeta (Homo sapiens, UniProt Q13574); assay: In vitro DGK inhibition assay (ADP-Glo, liposomes), DGKzeta; type: biochemical; set-up: hDGKzeta(1-928)-N-His; His (N); made in house; host or cells: Sf21 insect cells (baculovirus); conditions: 2 nM DGK ζ, 50 μM ATP, 125 uM DLG in liposomes, 1 hour reaction
# Method in brief: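 DGKζ (2 nM) phosphorylated DLG presented in DLG/PS/PC liposomes (final DLG 125 μM) with 50 μM ATP for 1 hour. ADP formed was read by ADP-Glo luminescence. Compounds were tested as 11-point 1:3 dose responses in 2% final DMSO.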
# [3] = system: primary human T-cells; assay: T-cell proliferation assay (CellTiter-Glo); type: cell-based; conditions: CD3 condition; for Emax: read-out: Emax proliferation (% activation); for EC50: proliferation after 5 days, CellTiter-Glo, read-out: Tcell Proliferation CD3 EC50
# Method in brief: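 Expanded primary human T-cells (100k/well) on plates coated with CD3 antibody or PBS only, given a 5- or 6-point dose response (top 20 or 10 μM final, 3.333-fold steps, 0.2% DMSO). ATP measured by CellTiter-Glo 2.0 luminescence after 5 days. Normalized to DMSO and 20 μM reference A1 (100%); EC50 and Emax reported for CD3 conditions.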
# [4] = Homo sapiens, T-cell, 120 h, 5 days, 20 μM reference compound A1 = 100%
# Chain of DGKalpha (P23743 whole entry): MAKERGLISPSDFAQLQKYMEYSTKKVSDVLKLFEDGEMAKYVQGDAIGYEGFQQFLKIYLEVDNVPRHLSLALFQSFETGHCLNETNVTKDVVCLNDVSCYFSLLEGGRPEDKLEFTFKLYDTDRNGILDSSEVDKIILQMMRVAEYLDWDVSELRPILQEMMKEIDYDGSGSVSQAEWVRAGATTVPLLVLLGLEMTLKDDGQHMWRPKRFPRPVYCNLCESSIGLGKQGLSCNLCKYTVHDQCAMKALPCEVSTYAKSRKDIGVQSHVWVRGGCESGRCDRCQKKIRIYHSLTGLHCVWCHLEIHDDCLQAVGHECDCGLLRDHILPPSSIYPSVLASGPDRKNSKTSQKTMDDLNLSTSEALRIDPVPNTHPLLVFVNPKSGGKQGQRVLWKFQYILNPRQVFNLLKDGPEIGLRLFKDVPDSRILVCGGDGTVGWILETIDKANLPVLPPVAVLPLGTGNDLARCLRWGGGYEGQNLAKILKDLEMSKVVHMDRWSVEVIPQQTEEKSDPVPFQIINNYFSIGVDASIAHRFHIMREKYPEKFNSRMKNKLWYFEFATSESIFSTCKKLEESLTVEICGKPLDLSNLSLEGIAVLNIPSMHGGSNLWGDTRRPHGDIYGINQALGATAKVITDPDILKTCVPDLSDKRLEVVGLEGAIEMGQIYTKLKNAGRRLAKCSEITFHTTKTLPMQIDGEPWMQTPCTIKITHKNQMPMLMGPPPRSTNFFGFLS
# Chain of DGKzeta (Q13574 whole entry): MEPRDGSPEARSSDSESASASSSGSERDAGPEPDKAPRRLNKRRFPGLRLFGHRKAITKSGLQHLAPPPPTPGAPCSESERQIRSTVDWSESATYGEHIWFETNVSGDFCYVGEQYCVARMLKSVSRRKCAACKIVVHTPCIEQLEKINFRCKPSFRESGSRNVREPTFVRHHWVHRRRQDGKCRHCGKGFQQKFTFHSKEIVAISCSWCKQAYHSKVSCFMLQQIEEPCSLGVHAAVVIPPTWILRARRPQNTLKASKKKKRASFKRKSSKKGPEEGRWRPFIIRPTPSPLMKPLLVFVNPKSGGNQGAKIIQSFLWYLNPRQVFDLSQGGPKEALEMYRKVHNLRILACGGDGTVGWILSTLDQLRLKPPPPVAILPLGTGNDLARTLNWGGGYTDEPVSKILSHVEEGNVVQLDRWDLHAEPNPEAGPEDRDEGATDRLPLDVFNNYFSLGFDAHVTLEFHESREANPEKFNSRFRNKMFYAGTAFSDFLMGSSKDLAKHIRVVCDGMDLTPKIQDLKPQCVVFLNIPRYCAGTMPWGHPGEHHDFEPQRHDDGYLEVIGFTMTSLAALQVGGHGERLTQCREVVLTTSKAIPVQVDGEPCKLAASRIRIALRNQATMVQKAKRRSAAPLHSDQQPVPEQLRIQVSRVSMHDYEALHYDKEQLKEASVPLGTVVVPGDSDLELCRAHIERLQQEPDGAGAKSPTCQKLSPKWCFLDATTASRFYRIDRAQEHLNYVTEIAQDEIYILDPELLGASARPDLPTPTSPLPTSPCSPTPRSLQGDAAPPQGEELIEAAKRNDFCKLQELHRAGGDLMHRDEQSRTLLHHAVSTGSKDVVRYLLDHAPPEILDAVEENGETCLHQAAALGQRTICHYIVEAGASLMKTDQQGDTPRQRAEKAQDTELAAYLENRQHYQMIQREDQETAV
Structure (SMILES),IC50 [1] [nM],IC50 [2] [nM],"Emax [3, 4] [%]","EC50 ([3]; Homo sapiens, T-cell, 120 h) [nM]","Emax proliferation (% activation) ([3]; 5 days, 20 μM reference compound A1 = 100%) [%]",EC50 [3] [nM]
"CN(C)S(=O)(=O)C(C)(C)c1nnc(-c2ccc3c(c2)N(Cc2ccc(-c4ccc(C(F)(F)F)cc4)cc2)C(=O)[C@@H](N)CS3(=O)=O)o1 [Example 65, 2-[5-[(3R)-3-amino-1,1,4-trioxo-5-[[4-[4-(trifluoromethyl)phenyl]phenyl]methyl]-2,3-dihydro-1λ6,5-benzothiazepin-7-yl]-1,3,4-oxadiazol-2-yl]-N,N-dimethyl-propane-2-sulfonamide]",> 62500,8370,155,2620,,
COc1cccc(Oc2ccc(CN3C(=O)[C@@H](N)CS(=O)(=O)c4ccc(-c5nnc(C(C)(C)S(C)(=O)=O)o5)cc43)cc2)c1 [Example 42],1160,413,205,674,,
"CC(C)(c1nc(-c2cc3c(cc2F)[S+]([O-])C[C@H](N)C(=O)N3Cc2ccc(Oc3ccccc3)cc2)no1)S(C)(=O)=O (stereo partly drawn) [Example 52, (3R)-3-amino-8-fluoro-7-[5-(1-methyl-1-methylsulfonyl-ethyl)-1,2,4-oxadiazol-3-yl]-1-oxo-5-[(4-phenoxyphenyl)methyl]-2,3-dihydro-1λ4,5-benzothiazepin-4-one]",1550,419,,,181,978
"CC(C)(c1nnc(-c2ccc3c(c2)N(Cc2ccc(OCc4ccc(F)cc4)cc2)C(=O)[C@@H](N)CS3(=O)=O)o1)S(C)(=O)=O [Example 12, (3R)-3-amino-5-[[4-[(4-fluorophenyl)methoxy]phenyl]methyl]-7-[5-(1-methyl-1-methylsulfonyl-ethyl)-1,3,4-oxadiazol-2-yl]-1,1-dioxo-2,3-dihydro-1λ6,5-benzothiazepin-4-one]",669,802,151,590,,
"CC(C)(c1nnc(-c2cc3c(cc2F)S(=O)(=O)C[C@H](N)C(=O)N3Cc2ccc(-c3ccc(C(F)(F)F)cc3)cc2)o1)S(C)(=O)=O [Example 35, (3R)-3-amino-8-fluoro-7-[5-(1-methyl-1-methylsulfonyl-ethyl)-1,3,4-oxadiazol-2-yl]-1,1-dioxo-5-[[4-[4-(trifluoromethyl)phenyl]phenyl]methyl]-2,3-dihydro-1λ6,5-benzothiazepin-4-one]",1220,649,164,< 15,,
"CS(=O)(=O)C1(c2nnc(-c3ccc4c(c3)N(Cc3ccc(Oc5ccccc5)cc3)C(=O)[C@@H](N)CS4(=O)=O)o2)CCC1 [Example 68, (3R)-3-amino-7-[5-(1-methylsulfonylcyclobutyl)-1,3,4-oxadiazol-2-yl]-1,1-dioxo-5-[(4-phenoxyphenyl)methyl]-2,3-dihydro-1λ6,5-benzothiazepin-4-one]",> 62500,3500,83,2290,,
CC(C)(c1nnc(-c2cc3c(cc2F)S(=O)(=O)C[C@H](N)C(=O)N3Cc2ccc(-c3ccc(C(F)(F)F)nc3)cc2)o1)S(C)(=O)=O [Example 36],1590,414,112,1680,,
"CS(=O)(=O)C1(c2nnc(-c3cc4c(cc3F)S(=O)(=O)C[C@H](N)C(=O)N4Cc3ccc(Cl)cc3)o2)CC1 [Example 1, (3R)-3-amino-5-[(4-chlorophenyl)methyl]-8-fluoro-7-[5-(1-methylsulfonylcyclopropyl)-1,3,4-oxadiazol-2-yl]-1,1-dioxo-2,3-dihydro-1λ6,5-benzothiazepin-4-one]",2340,989,99,2290,,
"CC(C)(c1nnc(-c2ccc3c(c2)N(Cc2ccc(Oc4cccc(Cl)c4Cl)cc2)C(=O)[C@@H](N)CS3(=O)=O)o1)S(C)(=O)=O [Example 32, (3R)-3-amino-5-[[4-(2,3-dichlorophenoxy)phenyl]methyl]-7-[5-(1-methyl-1-methylsulfonyl-ethyl)-1,3,4-oxadiazol-2-yl]-1,1-dioxo-2,3-dihydro-1λ6,5-benzothiazepin-4-one]",13400,893,75,356,,
"CC(C)(c1nnc(-c2ccc3c(c2)N(Cc2ccc(-c4ccc(C#N)cc4)cc2)C(=O)[C@@H](N)CS3(=O)=O)o1)S(C)(=O)=O [Example 20, 4-[4-[[(3R)-3-amino-7-[5-(1-methyl-1-methylsulfonyl-ethyl)-1,3,4-oxadiazol-2-yl]-1,1,4-trioxo-2,3-dihydro-1λ6,5-benzothiazepin-5-yl]methyl]phenyl]benzonitrile]",1380,1450,85,4010,,
"CS(=O)(=O)Cn1nnc(-c2cc3c(cc2F)S(=O)(=O)C[C@H](N)C(=O)N3Cc2ccc(Oc3ccccc3)cc2)n1 [Example 54, (3R)-3-amino-8-fluoro-7-[2-(methylsulfonylmethyl)tetrazol-5-yl]-1,1-dioxo-5-[(4-phenoxyphenyl)methyl]-2,3-dihydro-1λ6,5-benzothiazepin-4-one]",1170,603,310,1540,,
"CC(C)(c1nnc(-c2ccc3c(c2)N(Cc2ccc(Oc4cccc(OC(F)(F)F)c4)cc2)C(=O)[C@@H](N)CS3(=O)=O)o1)S(C)(=O)=O [Example 40, (3R)-3-amino-7-[5-(1-methyl-1-methylsulfonyl-ethyl)-1,3,4-oxadiazol-2-yl]-1,1-dioxo-5-[[4-[3-(trifluoromethoxy)phenoxy]phenyl]methyl]-2,3-dihydro-126,5-benzothiazepin-4-one]",1970,893,148,903,,
"CC(C)(c1nnc(-c2ccc3c(c2)N(Cc2ccc(OCc4ccccc4F)cc2)C(=O)[C@@H](N)CS3(=O)=O)o1)S(C)(=O)=O [Example 14, (3R)-3-amino-5-[[4-[(2-fluorophenyl)methoxy]phenyl]methyl]-7-[5-(1-methyl-1-methylsulfonyl-ethyl)-1,3,4-oxadiazol-2-yl]-1,1-dioxo-2,3-dihydro-1λ6,5-benzothiazepin-4-one]",2020,1110,113,1220,,
"CC(C)(c1nc(-c2cc3c(cc2F)S(=O)(=O)C[C@H](N)C(=O)N3Cc2ccc(OCc3nc(C(F)(F)F)no3)cc2)no1)S(C)(=O)=O [Example 59, (3R)-3-amino-8-fluoro-7-[5-(1-methyl-1-methylsulfonyl-ethyl)-1,2,4-oxadiazol-3-yl]-1,1-dioxo-5-[[4-[[3-(trifluoromethyl)-1,2,4-oxadiazol-5-yl]methoxy]phenyl]methyl]-2,3-dihydro-1λ6,5-benzothiazepin-4-one]",1850,310,185,1120,,
"CC(C)(c1nnc(-c2ccc3c(c2)N(Cc2ccc(-c4ccc(C(F)(F)F)cc4)cc2)C(=O)[C@@H](N)CS3(=O)=O)o1)S(=O)(=O)N1CCCC1 [Example 67, (3R)-3-amino-7-[5-(1-methyl-1-pyrrolidin-1-ylsulfonyl-ethyl)-1,3,4-oxadiazol-2-yl]-1,1-dioxo-5-[[4-[4-(trifluoromethyl)phenyl]phenyl]methyl]-2,3-dihydro-1λ6,5-benzothiazepin-4-one]",> 62500,49700,142,5510,,
"COc1cc(Cl)cc(Oc2ccc(CN3C(=O)[C@@H](N)CS(=O)(=O)c4ccc(-c5nnc(C(C)(C)S(C)(=O)=O)o5)cc43)cc2)c1 [Example 41, (3R)-3-amino-5-[[4-(3-chloro-5-methoxy-phenoxy)phenyl]methyl]-7-[5-(1-methyl-1-methylsulfonyl-ethyl)-1,3,4-oxadiazol-2-yl]-1,1-dioxo-2,3-dihydro-1λ6,5-benzothiazepin-4-one]",41000,2290,97,1710,,
CC(C)(c1nnc(-c2ccc3c(c2)N(Cc2ccc(Oc4cc(F)cc(C(F)(F)F)c4)cc2)C(=O)[C@@H](N)CS3(=O)=O)o1)S(C)(=O)=O [Example 39],34900,2630,108,1330,,
"CC(C)(c1nnc(-c2ccc3c(c2)N(Cc2ccc(-c4ccc(OC(F)(F)F)cn4)cc2)C(=O)[C@@H](N)CS3(=O)=O)o1)S(C)(=O)=O [Example 69, (3R)-3-amino-1,1-diketo-7-[5-(1-mesyl-1-methyl-ethyl)-1,3,4-oxadiazol-2-yl]-5-[4-[5-(trifluoromethoxy)-2-pyridyl]benzyl]-2,3-dihydro-1λ6,5-benzothiazepin-4-one]",175,826,91,31,,
